Experimental findings from US9615577B2, “Herbicidally active cyclic dione compounds, or derivatives therefor, substituted by a phenyl which has an alkynyl-containing substituent” (Syngenta Limited, priority 2012, dated 2017) are described below.

Assay type in all cases: in vivo
For assay [1], the system named is Abutilon theophasti Medik. (ABUTH). The assay can be described thus: Biological Example 2 comparative herbicidal data, post-emergence glasshouse screen. Particulars: read-out: Post-emergence herbicidal activities (percentage phytotoxicity) ABUTH; for pest or weed control at 8 g/ha: 8 g/ha application rate; for pest or weed control at 30 g/ha: 30 g/ha application rate.

The test system of assay [2] is Echinochloa crus-galli (ECHCG). The assay can be described thus: Test 1A glasshouse assay for herbicidal activity, post-emergence. Particulars: 312 h, evaluated after 13 days, read-out: percentage phytotoxicity ECHCG. As for the experimental part: (§1) Seeds of a variety of test species were sown in standard soil in pots. After cultivation for one day (pre-emergence) or after 8 days cultivation (post-emergence) under controlled conditions in a glasshouse (at 24/16° C., day/night; 14 hours light; 65% humidity), the plants were sprayed with an aqueous spray solution derived from the formulation of the technical active ingredient in acetone/I water (50:50) solution containing 0.5% Tween 20 (polyoxyethelyene sorbitan monolaurate, CAS RN 9005-64-5). The test plants were then grown in a glasshouse under controlled conditions in a glasshouse (at 24/16° C., day/night; 14 hours light; 65% humidity) and watered twice daily. After 13 days for pre and post-emergence, the test was evaluated visually for percentage phytotoxicity to the plant (where 100=total damage to plant; 0=no damage to plant).
(§2) Alopecurus myosuroides (ALOMY), Setaria faberi (SETFA), Echinochloa crus-galli (ECHCG), Solanum nigrum (SOLNI), Amaranthus retroflexus (AMARE), Ipomoea hederacea (IPOHE), and Abutilon theophasti Medik. (ABUTH, common English name “velvetleaf”). Of these, Alopecurus myosuroides (ALOMY), Setaria faberi (SETFA), and Echinochloa crus-galli (ECHCG) are grassy monocotyledonous weeds.

The test system of assay [3] is Setaria faberi (SETFA). Described as above. To be noted: 312 h, evaluated after 13 days, read-out: percentage phytotoxicity SETFA. As to the method:
as §1, §2

Assay [4] has as its system Alopecurus myosuroides (ALOMY). The description is as above. To be noted: 312 h, evaluated after 13 days, read-out: percentage phytotoxicity ALOMY. As for the experimental part: as §1, §2
For assay [5], the system named is Amaranthus retroflexus (AMARE). The assay is described as above. Particulars: 312 h, evaluated after 13 days, read-out: percentage phytotoxicity AMARE. As to the method:
as §1, §2

Assay [6] concerns Abutilon theophasti Medik. (ABUTH). The assay is described as above. Particulars: 312 h, evaluated after 13 days, read-out: percentage phytotoxicity ABUTH. As to the method: as §1, §2
Assay [7] has as its system Echinochloa crus-galli (ECHCG). As to the kind of experiment: Biological Example 2 comparative herbicidal data, post-emergence glasshouse screen. Particulars: 312 h, read-out: Post-emergence herbicidal activities (percentage phytotoxicity) ECHCG; for pest or weed control at 8 g/ha: 8 g/ha application rate; for pest or weed control at 30 g/ha: 30 g/ha application rate. As for the experimental part:
as §1
(§3) Comparative herbicidal data is given below for certain exemplified compounds with 4-(prop-1-ynyl)-2,6-dimethylphenyl or 4-(chloroethynyl)-2,6-dimethylphenyl headgroups, compared to the corresponding compounds with either 4-ethynyl-2,6-dimethylphenyl or 2,4,6-trimethylphenyl headgroups, as follows. Comparative herbicidal data is also given below for certain exemplified compounds with 4-(prop-1-ynyl)-2-chloro-6-methoxyphenyl headgroups, compared to the corresponding compounds with 4-ethynyl-2-chloro-6-methoxyphenyl or 4-(but-1-ynyl)-2-chloro-6-methoxyphenyl or 4-methyl-2-chloro-6-methoxyphenyl or 2-chloro-6-methoxyphenyl headgroups, as follows.
(§4) Except where specified otherwise, the glasshouse screen for herbicidal activity is substantially the same as that presented in Biological Example 1A (Test 1A) hereinabove. The weed abbreviations are as defined in Biological Example 1A.

In assay [8] the test system is Setaria faberi (SETFA). The assay is described as above. To be noted: 312 h, read-out: Post-emergence herbicidal activities (percentage phytotoxicity) SETFA; for pest or weed control at 8 g/ha: 8 g/ha application rate; for pest or weed control at 30 g/ha: 30 g/ha application rate. As to the method: as §1, §3, §4
In assay [9] the test system is Alopecurus myosuroides (ALOMY). Described as above. Particulars: 312 h, read-out: Post-emergence herbicidal activities (percentage phytotoxicity) ALOMY; for pest or weed control at 8 g/ha: 8 g/ha application rate; for pest or weed control at 30 g/ha: 30 g/ha application rate. As for the experimental part: as §1, §3, §4
The test system of assay [10] is Amarantus retroflexus (AMARE). The assay is described as above. Particulars: Amaranthus retroflexus, read-out: Post-emergence herbicidal activities (percentage phytotoxicity) AMARE; for pest or weed control at 8 g/ha: 8 g/ha application rate; for pest or weed control at 30 g/ha: 30 g/ha application rate.
The test system of assay [11] is Echinochloa crus-galli (ECHCG). As to the kind of experiment: Test 1A glasshouse assay for herbicidal activity, pre-emergence. To be noted: 312 h, 250 g/ha, evaluated after 13 days, read-out: percentage phytotoxicity ECHCG. As to the method: as §1, §2
The test system of assay [12] is Setaria faberi (SETFA). The assay is described as above. Particulars: 312 h, 250 g/ha, evaluated after 13 days, read-out: percentage phytotoxicity SETFA. As for the experimental part:
as §1, §2

The test system of assay [13] is Alopecurus myosuroides (ALOMY). The description is as above. Particulars: 312 h, 250 g/ha, evaluated after 13 days, read-out: percentage phytotoxicity ALOMY. As to the method:
as §1, §2

Assay [14] has as its system Amaranthus retroflexus (AMARE). Described as above. Particulars: 312 h, 250 g/ha, evaluated after 13 days, read-out: percentage phytotoxicity AMARE. As to the method:
as §1, §2

Assay [15] relates to Abutilon theophasti Medik. (ABUTH). The description is as above. To be noted: 312 h, 250 g/ha, evaluated after 13 days, read-out: percentage phytotoxicity ABUTH. As to the method: as §1, §2

Regarding `CC#Cc1cc(Cl)c(C2C(=O)CCCC2=O)c(OC)c1` [Compound A-22, 2-(2-Chloro-6-methoxy-4-prop-1-ynyl-phenyl)cyclohexane-1,3-dione], the pest or weed control at 8 g/ha worked out at 0% in [1]; 80% in [7]; 70% in the assay with Setaria faberi (SETFA) [8]; 10% in assay [9]; 0% in [10]. Further, the pest or weed control at 30 g/ha in assay [1] is 10%; in assay [2], 90%; in the assay with Setaria faberi (SETFA) [3], 80%; in [4] it was 60%; in assay [5] it was 20%; in assay [6], 10%. Moreover, the pest or weed control at 30 g/ha in assay [7] came to 90%; in the assay with Setaria faberi (SETFA) [8], 80%; in assay [9] it was 60%; in assay [10] it was 20%. In addition, the pest or weed control at 250 g/ha turned out to be 100% in [2]; 100% in the assay on Setaria faberi (SETFA) [3]; 90% in [4]; 0% in assay [5]; 70% in assay [6]; 100% in assay [11]. Besides, the pest or weed control at 250 g/ha in the assay on Setaria faberi (SETFA) [12] came out at 100%; in assay [13] it was 90%; in assay [14], 70%; in assay [15] it was 60%.

On to `CC#Cc1cc(C)c(C2C(=O)CC(CC(C)SC)CC2=O)c(C)c1` (stereo not drawn) [Compound A-24, 2-(2,6-Dimethyl-4-prop-1-ynyl-phenyl)-5-(2-methylsulfanylpropyl)cyclohexane-1,3-dione], for which the pest or weed control at 30 g/ha amounted to 0% in assay [1]; 100% in [2]; 100% in the assay with Setaria faberi (SETFA) [3]; 90% in assay [4]; 0% in assay [5]; 0% in assay [6]. In addition, the pest or weed control at 30 g/ha in [7] is 100%; in the assay on Setaria faberi (SETFA) [8], 100%; in [9] it was 90%; in [10], 0%. For the same compound, the pest or weed control at 250 g/ha in [2] was 100%; in the assay with Setaria faberi (SETFA) [3], 100%; in assay [4] it was 100%; in assay [5], 60%; in assay [6], 60%; in [11], 100%. Besides, the pest or weed control at 250 g/ha in the assay with Setaria faberi (SETFA) [12] came out at 100%; in [13], 90%; in assay [14], 80%; in [15], 20%.

As to `CC#Cc1cc(C)c(C2=C(OC(=O)C(C)(C)C)C3CCC(C3)C2=O)c(C)c1` (stereo not drawn) [Compound P-5], the pest or weed control at 30 g/ha was found to be 80% in assay [2]; 70% in the assay with Setaria faberi (SETFA) [3]; 60% in [4]; 0% in assay [5]; 0% in assay [6]. Also, the pest or weed control at 250 g/ha in assay [2] amounted to 100%; with Setaria faberi (SETFA) [3] it was 90%; in assay [4], 90%; in assay [5], 10%; in [6], 70%; in [11], 100%. Moreover, the pest or weed control at 250 g/ha came to 100% in the assay on Setaria faberi (SETFA) [12], 100% in assay [13], 0% in [14] and 0% in assay [15].

Regarding `CC#Cc1cc(Cl)c(C2=C(OC(=O)C(C)(C)C)C3CCC(C3)C2=O)c(OC)c1` (stereo not drawn) [Compound P-7], the pest or weed control at 30 g/ha in assay [2] came to 100%; in the assay with Setaria faberi (SETFA) [3], 90%; in [4], 90%; in assay [5], 0%; in assay [6] it was 10%. The pest or weed control at 250 g/ha in assay [2] is 100%; with Setaria faberi (SETFA) [3], 100%; in assay [4] it was 100%; in assay [5] it was 0%; in [6], 70%; in [11] it was 100%. Besides, the pest or weed control at 250 g/ha came to 100% with Setaria faberi (SETFA) [12], 100% in [13], 0% in assay [14] and 0% in assay [15].

As for `COc1cc(C)cc(Cl)c1C1C(=O)C2CCC(C2)C1=O` (stereo not drawn) [Compound X-5, reference compound], the pest or weed control at 8 g/ha in assay [1] came out at 0%; in [7], 0%; in the assay with Setaria faberi (SETFA) [8], 20%; in assay [9], 0%; in [10], 30%. Besides, the pest or weed control at 30 g/ha was found to be 10% in assay [1]; 80% in assay [7]; 60% in the assay with Setaria faberi (SETFA) [8]; 30% in [9]; 30% in assay [10].

On to `COc1cccc(Cl)c1C1C(=O)CC2(CCOCC2)CC1=O` [Compound X-6, reference compound], for which the pest or weed control at 30 g/ha in assay [1] stood at 0%; in assay [7], 10%; in the assay on Setaria faberi (SETFA) [8], 10%; in assay [9] it was 20%; in assay [10] it was 20%.

With `CSCCC1CC(=O)C(c2c(C)cc(C)cc2C)C(=O)C1` (stereo not drawn) [Compound X-7, reference compound], the pest or weed control at 8 g/ha (in assay [1]; in assay [7]; in the assay with Setaria faberi (SETFA) [8]; in [9]; in assay [10]) was 0% each time. The pest or weed control at 30 g/ha stood at 0% in [1]; 10% in [7]; 20% in the assay with Setaria faberi (SETFA) [8]; 30% in assay [9]; 0% in assay [10].

As for `CSC(C)CC1CC(=O)C(c2c(C)cc(C)cc2C)C(=O)C1` (stereo not drawn) [Compound X-8, reference compound], the pest or weed control at 30 g/ha in [1] turned out to be 0%; in assay [7] it was 70%; with Setaria faberi (SETFA) [8], 80%; in assay [9], 70%; in assay [10], 0%.
